Experimental data as given in patent US10174067B2, “Type of cytidine derivative and application thereof” (priority 2014, dated 2019).
Marks after values point to notes of the source that are not given here.

Tests used:
[1] = How it was run: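 Female SPF Balb/c nude mice bearing subcutaneous HCT-116 xenografts (3×10^6 cells, right hind limb), grouped at 60–150 mm^3, 6 per group; vehicle ethanol/Cremophor EL/saline 5:5:90. Body weight thrice weekly; tumours excised and weighed at sacrifice; Mean±SEM, unpaired t-test, P<0.05.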
ICR mice = assay: in vivo; conditions: female ICR mice; single-dose ip
How it was run: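 Female SPF ICR mice received a single ip dose in ethanol/Cremophor EL/saline (5:5:90), with dose lowered after deaths and raised otherwise. MTD defined as dose causing no death, no >10% weight loss versus Day 0 and no significant side effects; daily weights and twice-daily clinical observation over 7-14 days.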

[2] = test system: HCT-116 colon cancer xenografts; assay: Tumor growth inhibition of HCT-116 colon cancer xenografts in tumor-bearing nude mice (tumor volume, TGI %, RTV, T/C %); type: in vivo, Balb/c Nude mice; conditions: G10-G16 groups, single IP 400 mg/kg
How it was run: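 Nude mice inoculated with HCT-116 cells (about 3×10^7 cells/mL in serum-free medium). Tumor diameter measured three times weekly and volume computed as V=3/4π(D/2)^3. Activity expressed as TGI (%) and T/C (%) from relative tumor volume Vt/V0, with V0 taken at grouping and dosing start; P<0.05 significant.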

[3] = Day 1, G10-G16 groups, single IP 400 mg/kg, Mean±SEM
[4] = Day 2, G10-G16 groups, single IP 400 mg/kg, Mean±SEM
[5] = Day 4, G10-G16 groups, single IP 400 mg/kg, Mean±SEM
[6] = Day 7, G10-G16 groups, single IP 400 mg/kg, Mean±SEM
[7] = Day 9, G10-G16 groups, single IP 400 mg/kg, Mean±SEM
[8] = Day 11, G10-G16 groups, single IP 400 mg/kg, Mean±SEM
[9] = Day 14, G10-G16 groups, single IP 400 mg/kg, Mean±SEM
[10] = Day 16, G10-G16 groups, single IP 400 mg/kg, Mean±SEM
[11] = Day 18, G10-G16 groups, single IP 400 mg/kg, Mean±SEM
[12] = Day 21, G10-G16 groups, single IP 400 mg/kg, Mean±SEM
[13] = Day 23, G10-G16 groups, single IP 400 mg/kg, Mean±SEM
[14] = Day 25, G10-G16 groups, single IP 400 mg/kg, Mean±SEM
[15] = Day 28, G10-G16 groups, single IP 400 mg/kg, Mean±SEM
[16] = Day 30, G10-G16 groups, single IP 400 mg/kg, Mean±SEM

O=C(COc1nc(Cl)c(Cl)cc1Cl)OCC1OC(n2cc(-c3cn(Cc4ccccc4)nn3)c(NC(=O)OCc3ccc([N+](=O)[O-])cc3)nc2=O)C(F)(F)C1O (centres unmarked) [Compound G13]
Weight change rate, Day 0 ([1]; Day 0, G10-G16 groups, single IP 400 mg/kg): 0.00% | Weight of mice, Day 0 ([1]; Day 0, G10-G16 groups, single IP 400 mg/kg, Mean±SEM): 20.43 ± 0.27 g | Weight change rate, Day 1 [1, 3]: −6.73 ± 0.73 % | Weight of mice, Day 1 [1, 3]: 19.05 ± 0.17 g | Weight change rate, Day 2 [1, 4]: −6.78 ± 0.95 % | Weight of mice, Day 2 [1, 4]: 19.05 ± 0.35 g | Weight change rate, Day 4 [1, 5]: −3.29 ± 1.05% | Weight of mice, Day 4 [1, 5]: 19.77 ± 0.40 g | Weight change rate, Day 7 [1, 6]: −2.67 ± 1.20% | Weight of mice, Day 7 [1, 6]: 19.90 ± 0.48 g | Weight change rate, Day 9 [1, 7]: 0.07 ± 2.05% | Weight of mice, Day 9 [1, 7]: 20.47 ± 0.64 g | Weight change rate, Day 11 [1, 8]: 0.61 ± 2.23% | Weight of mice, Day 11 [1, 8]: 20.58 ± 0.69 g | Weight change rate, Day 14 [1, 9]: 0.35 ± 2.75% | Weight of mice, Day 14 [1, 9]: 20.53 ± 0.79 g | Weight change rate, Day 16 [1, 10]: 3.83 ± 3.60% | Weight of mice, Day 16 [1, 10]: 21.25 ± 0.94 g | Weight change rate, Day 18 [1, 11]: 4.84 ± 3.19 % | Weight of mice, Day 18 [1, 11]: 21.45 ± 0.85 g | Weight change rate, Day 21 [1, 12]: 4.12 ± 3.07 % | Weight of mice, Day 21 [1, 12]: 21.30 ± 0.81 g | Day 22 Mortality ([1]; Day 22, single IP dose (mg/kg)): 0% | Weight change rate, Day 23 [1, 13]: 5.17 ± 4.24% | Weight of mice, Day 23 [1, 13]: 21.44 ± 1.05 g | Weight change rate, Day 25 [1, 14]: 9.03 ± 4.91% | Weight of mice, Day 25 [1, 14]: 22.24 ± 1.24 g | Weight change rate, Day 28 [1, 15]: 12.25 ± 3.97% | Weight of mice, Day 28 [1, 15]: 23.08 ± 0.97 g | Weight change rate, Day 30 [1, 16]: 13.32 ± 4.25% | Weight of mice, Day 30 [1, 16]: 23.30 ± 1.07 g | clinical symptoms ([1]; after single IP dose, compared with model control group): no significant differences in clinical symptoms | dose that could be tolerated (maximum tolerated dose, MTD) (ICR mice): 400 mg/kg | Day 0 (RTV) ([2]; Day 0): 1.00 | Tumor volume, Day 0 ([2]; Day 0, Mean±SEM): 61.03 ± 13.76* mm^3 | Day 1 (TGI %) ([2]; Day 1): 77.92% | Day 1 (RTV) ([2]; Day 1, Mean±SEM): 0.91 ± 0.12 | Tumor volume, Day 1 ([2]; Day 1, Mean±SEM): 48.89 ± 5.84** mm^3 | Day 2 (TGI %) ([2]; Day 2): 76.34% | Day 2 (RTV) ([2]; Day 2, Mean±SEM): 0.95 ± 0.11 | Tumor volume, Day 2 ([2]; Day 2, Mean±SEM): 52.50 ± 8.43** mm^3 | Day 4 (TGI %) ([2]; Day 4): 73.88% | Day 4 (RTV) ([2]; Day 4, Mean±SEM): 1.31 ± 0.07 | Tumor volume, Day 4 ([2]; Day 4, Mean±SEM): 77.58 ± 16.80** mm^3 | Day 7 (TGI %) ([2]; Day 7): 68.32% | Day 7 (RTV) ([2]; Day 7, Mean±SEM): 2.39 ± 0.28 | Tumor volume, Day 7 ([2]; Day 7, Mean±SEM): 137.02 ± 30.02** mm^3 | Day 9 (TGI %) ([2]; Day 9): 55.73% | Day 9 (RTV) ([2]; Day 9, Mean±SEM): 4.07 ± 0.37 | Tumor volume, Day 9 ([2]; Day 9, Mean±SEM): 261.35 ± 79.51* mm^3 | Day 11 (TGI %) ([2]; Day 11): 56.17% | Day 11 (RTV) ([2]; Day 11, Mean±SEM): 6.38 ± 0.77 | Tumor volume, Day 11 ([2]; Day 11, Mean±SEM): 427.82 ± 136.59** mm^3 | Day 14 (TGI %) ([2]; Day 14): 46.84% | Day 14 (RTV) ([2]; Day 14, Mean±SEM): 11.17 ± 1.45 | Tumor volume, Day 14 ([2]; Day 14, Mean±SEM): 765.65 ± 247.40* mm^3 | Day 16 (TGI %) ([2]; Day 16): 43.43% | Day 16 (RTV) ([2]; Day 16, Mean±SEM): 15.55 ± 1.37 | Tumor volume, Day 16 ([2]; Day 16, Mean±SEM): 1024.48 ± 288.64* mm^3 | Day 18 (TGI %) ([2]; Day 18): 36.04% | Day 18 (RTV) ([2]; Day 18, Mean±SEM): 19.86 ± 1.32 | Tumor volume, Day 18 ([2]; Day 18, Mean±SEM): 1278.22 ± 336.74 mm^3 | Day 21 (TGI %) ([2]; Day 21): 32.28% | Day 21 (RTV) ([2]; Day 21, Mean±SEM): 26.98 ± 0.99 | Tumor volume, Day 21 ([2]; Day 21, Mean±SEM): 1655.72 ± 370.44 mm^3 | Day 23 (TGI %) ([2]; Day 23): 39.64% | Day 23 (RTV) ([2]; Day 23, Mean±SEM): 27.42 ± 1.09 | Tumor volume, Day 23 ([2]; Day 23, Mean±SEM): 1425.63 ± 355.57 mm^3 | Day 25 (TGI %) ([2]; Day 25): 38.81% | Day 25 (RTV) ([2]; Day 25, Mean±SEM): 30.60 ± 1.01 | Tumor volume, Day 25 ([2]; Day 25, Mean±SEM): 1580.18 ± 380.76 mm^3 | Day 28 (TGI %) ([2]; Day 28): 44.77% | Day 28 (RTV) ([2]; Day 28, Mean±SEM): 35.76 ± 0.97 | Tumor volume, Day 28 ([2]; Day 28, Mean±SEM): 1485.25 ± 290.76 mm^3 | Day 30 (TGI %) ([2]; Day 30): 38.58% | Day 30 (RTV) ([2]; Day 30, Mean±SEM): 42.06 ± 2.09 | Tumor volume, Day 30 ([2]; Day 30, Mean±SEM): 1723.43 ± 289.91 mm^3
